PubChem BioAssay (NCI)
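Results reflect a 48-hour exposure of cells in 96-well plates to compound at five concentrations. Here, GI50 denotes the concentration required for 50% inhibition of growth. TGI denotes the concentration required for complete inhibition of growth.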

Legend:
Assay in all cases: DTP human tumour cell line panel, 48 h
[1] = test system: 786-0 renal
[2] = test system: A498 renal
[3] = test system: A549 NSCLC
[4] = test system: ACHN renal
[5] = test system: BT-549 breast
[6] = test system: CAKI-1 renal
[7] = test system: CCRF-CEM leukemia
[8] = test system: COLO 205 colon
[9] = test system: DU-145 prostate
[10] = test system: EKVX NSCLC
[11] = test system: HCC-2998 colon
[12] = test system: HCT-116 colon
[13] = test system: HCT-15 colon
[14] = test system: HL-60(TB) leukemia
[15] = test system: HOP-62 NSCLC
[16] = test system: HOP-92 NSCLC
[17] = test system: HS 578T breast
[18] = test system: HT29 colon
[19] = test system: IGROV1 ovarian
[20] = test system: K-562 leukemia
[21] = test system: KM12 colon
[22] = test system: LOX IMVI melanoma
[23] = test system: M14 melanoma
[24] = test system: MALME-3M melanoma
[25] = test system: MCF7 breast
[26] = test system: MDA-MB-231 breast
[27] = test system: MDA-MB-435
[28] = test system: MOLT-4 leukemia
[29] = test system: NCI-H226 lung
[30] = test system: NCI-H23 lung
[31] = test system: NCI-H460 lung
[32] = test system: NCI-H522 lung
[33] = test system: NCI/ADR-RES ovarian
[34] = test system: OVCAR-3 ovarian
[35] = test system: OVCAR-4 ovarian
[36] = test system: OVCAR-5 ovarian
[37] = test system: OVCAR-8 ovarian
[38] = test system: PC-3 prostate
[39] = test system: RPMI-8226 leukemia
[40] = test system: RXF 393 renal
[41] = test system: SF-268 CNS
[42] = test system: SF-295 CNS
[43] = test system: SF-539 CNS
[44] = test system: SK-MEL-2 melanoma
[45] = test system: SK-MEL-28 melanoma
[46] = test system: SK-MEL-5 melanoma
[47] = test system: SK-OV-3 ovarian
[48] = test system: SN12C renal
[49] = test system: SNB-19 CNS
[50] = test system: SNB-75 CNS
[51] = test system: SR leukemia
[52] = test system: SW-620 colon
[53] = test system: T-47D breast
[54] = test system: TK-10 renal
[55] = test system: U251 CNS
[56] = test system: UACC-257 melanoma
[57] = test system: UACC-62 melanoma
[58] = test system: UO-31 renal

With `CN1CCN(Cc2ccc(NC(=O)c3cncc(C#Cc4cncc5[nH]ncc45)c3)cc2C(F)(F)F)CC1` the GI50 [1] was 1800 nM, the TGI [1] was 6350 nM and the GI50 [2] was 275 nM. The TGI [2] was 1560 nM, the GI50 [3] was 1670 nM and the TGI [3] was 6790 nM. The GI50 [4] was 1140 nM, the TGI [4] was 4710 nM and the GI50 [5] was 1390 nM. The TGI [5] was 5580 nM, the GI50 [6] was 790 nM and the TGI [6] was 2600 nM. The GI50 [7] was 1250 nM, the TGI [7] was 5070 nM and the GI50 [8] was 192 nM. For the same compound, the TGI [8] was 3560 nM, the GI50 [9] was 1360 nM and the TGI [9] was 6450 nM. The GI50 [10] was 1460 nM, the TGI [10] was 6270 nM and the GI50 [11] was 777 nM. For the same compound, the TGI [11] was 5880 nM, the GI50 [12] was 215 nM and the TGI [12] was 2340 nM. It also gave a GI50 [13] of 1690 nM, a TGI [13] of 6140 nM and a GI50 [14] of 249 nM. It also gave a TGI [14] of 1380 nM, a GI50 [15] of 882 nM and a TGI [15] of 4860 nM. The GI50 [16] was 156 nM, the TGI [16] was 1260 nM and the GI50 [17] was 523 nM. It also gave a TGI [17] of 2450 nM, a GI50 [18] of 251 nM and a TGI [18] of 6240 nM. For the same compound, the GI50 [19] was 454 nM, the TGI [19] was 1450 nM and the GI50 [20] was 5 nM. It also gave a TGI [20] of 1640 nM, a GI50 [21] of 20.9 nM and a TGI [21] of 2650 nM. It also gave a GI50 [22] of 171 nM, a TGI [22] of 689 nM and a GI50 [23] of 157 nM. The TGI [23] was 706 nM, the GI50 [24] was 98.7 nM and the TGI [24] was 383 nM. For the same compound, the GI50 [25] was 1090 nM, the TGI [25] was 6770 nM and the GI50 [26] was 230 nM. For the same compound, the TGI [26] was 1040 nM, the GI50 [27] was 556 nM and the TGI [27] was 5330 nM. For the same compound, the GI50 [28] was 773 nM, the TGI [28] was 4440 nM and the GI50 [29] was 206 nM. For the same compound, the TGI [29] was 2860 nM, the GI50 [30] was 488 nM and the TGI [30] was 4290 nM. It also gave a GI50 [31] of 1190 nM, a TGI [31] of 5600 nM and a GI50 [32] of 1160 nM. It also gave a TGI [32] of 8000 nM, a GI50 [33] of 4090 nM and a TGI [33] of 11300 nM. The GI50 [34] was 1460 nM, the TGI [34] was 6390 nM and the GI50 [35] was 171 nM. It also gave a TGI [35] of 5340 nM, a GI50 [36] of 601 nM and a TGI [36] of 5960 nM. The GI50 [37] was 1500 nM, the TGI [37] was 6730 nM and the GI50 [38] was 1140 nM. It also gave a TGI [38] of 5680 nM, a GI50 [39] of 761 nM and a TGI [39] of 2480 nM. For the same compound, the GI50 [40] was 665 nM, the TGI [40] was 1950 nM and the GI50 [41] was 899 nM. It also gave a TGI [41] of 3960 nM, a GI50 [42] of 1730 nM and a TGI [42] of 7400 nM. For the same compound, the GI50 [43] was 411 nM, the TGI [43] was 1280 nM and the GI50 [44] was 295 nM. For the same compound, the TGI [44] was 1250 nM, the GI50 [45] was 208 nM and the TGI [45] was 1960 nM. It also gave a GI50 [46] of 1170 nM, a TGI [46] of 4580 nM and a GI50 [47] of 1400 nM. For the same compound, the TGI [47] was 4890 nM, the GI50 [48] was 906 nM and the TGI [48] was 5730 nM. It also gave a GI50 [49] of 3810 nM, a TGI [49] of 9930 nM and a GI50 [50] of 793 nM. For the same compound, the TGI [50] was 2510 nM, the GI50 [51] was 1040 nM and the TGI [51] was 10700 nM. The GI50 [52] was 611 nM, the TGI [52] was 3640 nM and the GI50 [53] was 1800 nM. The TGI [53] was 9400 nM, the GI50 [54] was 1380 nM and the TGI [54] was 5430 nM. For the same compound, the GI50 [55] was 1530 nM, the TGI [55] was 7760 nM and the GI50 [56] was 500 nM. For the same compound, the TGI [56] was 4480 nM, the GI50 [57] was 336 nM and the TGI [57] was 1310 nM. For the same compound, the GI50 [58] was 1010 nM and the TGI [58] was 2520 nM.
